{
  "source": "paper PMC3516535",
  "about": "“Rhesus Macaque Theta Defensins Suppress Inflammatory Cytokines and Enhance Survival in Mouse Models of Bacteremic Sepsis” (PLoS ONE, 2012)",
  "key": {"[1]": {"test_system": "human EDTA-anti-coagulated blood diluted 1∶10", "experiment": "TNF release assay in stimulated diluted whole blood (ELISA)", "assay_type": "cell-based"}},
  "note": "Bridge positions count the residues as written; N and C are the ends. Peptide text beside a SMILES is read from it.",
  "data": [
    {"molecule": "CC[C@H](C)[C@@H]1NC(=O)[C@@H]2CSSC[C@H](NC(=O)[C@H](CCCNC(=N)N)NC(=O)[C@@H]3CSSC[C@H](NC1=O)C(=O)N[C@@H]([C@@H](C)O)C(=O)N[C@@H](CCCNC(=N)N)C(=O)NCC(=O)N[C@@H](Cc1ccccc1)C(=O)N3)C(=O)N[C@@H](CC(C)C)C(=O)N[C@H]1CSSC[C@H](NC(=O)[C@H](C(C)C)NC(=O)CNC(=O)[C@H](CCCNC(=N)N)NC(=O)[C@H](CCCNC(=N)N)NC1=O)C(=O)N[C@@H](CCCNC(=N)N)C(=O)N2", "note": "[RTD-1] (cyclo(GFCRCLCRRGVCRCICTR); disulfide 3-16, 5-14, 7-12)", "values": [
      {"measurement": "clinical and injection site effects", "setting": "adult chimpanzees; escalating i.v. doses (0.2 to 3.0 mg/kg over 14 days), two animals", "value": "No clinical or injection site effects were observed"},
      {"measurement": "comprehensive metabolic panels and complete blood counts with differential", "setting": "adult chimpanzees; escalating i.v. doses, all time points incl. days 21, 28, 60", "value": "no abnormalities"},
      {"measurement": "anti-RTD-1 antibody (dot blot immunoassay)", "setting": "adult chimpanzees; serum samples after escalating i.v. doses, two animals", "value": "No anti-RTD-1 antibody was detected"},
      {"measurement": "TNF-release inhibition", "setting": "[1]", "value": "70–80%"},
      {"measurement": "reduction of TNF levels", "setting": "[1]", "value": "46–93%"}
    ]}
  ]
}
